Experimental findings from US8288367B2, “Substituted estratriene derivatives as 17BETA HSD inhibitors” (Solvay Pharmaceuticals GmBH, priority 2006, dated 2012) are described below.

SMILES strings stand for the structures.

Usually inhibition stands for the relative decrease from the control value, in per cent.

In assay [1] the target is T1, recombinant human 17β-HSD2 (Homo sapiens, UniProt P37059).
T1 construct: made in house; host or cells: Sf9 insect cells (baculovirus, Bac to Bac Expression System)
T1 sequence (P37059 1-387): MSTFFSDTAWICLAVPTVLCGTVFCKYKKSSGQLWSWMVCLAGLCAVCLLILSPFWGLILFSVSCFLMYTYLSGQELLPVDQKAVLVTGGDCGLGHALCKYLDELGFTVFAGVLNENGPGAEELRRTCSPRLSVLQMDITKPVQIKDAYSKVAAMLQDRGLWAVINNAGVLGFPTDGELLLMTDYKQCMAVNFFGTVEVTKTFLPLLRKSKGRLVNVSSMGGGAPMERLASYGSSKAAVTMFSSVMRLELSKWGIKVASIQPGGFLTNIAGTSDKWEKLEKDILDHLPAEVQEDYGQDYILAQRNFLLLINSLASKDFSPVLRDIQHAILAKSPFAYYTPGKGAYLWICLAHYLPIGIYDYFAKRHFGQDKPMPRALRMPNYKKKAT
Kind of assay: Recombinant 17β-HSD2 assay (HPLC, 3H-estradiol conversion). The assay is classed as biochemical. Particulars: 50 nM estradiol, 1 mM β-NAD, read-out: Inhibition of rec. 17β-HSD2; for inhibition at 0.1 µM: 100 nM compound; for inhibition at 1 µM: 1 μm compound. Here is the method: 17β-HSD1 or 17β-HSD2 purification: Recombinant 17β-HSD1 and 17β-HSD2 baculoviruses were generated by the “Bac to Bac Expression System” (Invitrogen). Recombinant 17β-HSD1 or 17β-HSD2 bacmids were transfected to Sf9 insect cells using “Cellfectin Reagent” (Invitrogen). 60 h later cells were harvested; the fractions including 17β-HSD1 or 17β-HSD2 were isolated as described by Puranen et al. (1994). Aliquots were stored frozen until determination of enzymatic activity. Recombinant 17β-HSD2 assay: Recombinant 17β-HSD2 assay was performed as described for 17β-HSD1 but with following modifications: 6 μg/ml of recombinant protein homogenate, 50 nM Estradiol (Sigma, E8875) as a substrate, 800 000 cpm/ml ^3H-estradiol (PerkinElmer, NET317) as a tracer substrate and 1 mM β-NAD (Sigma N7004) as a co-factor were used. Total radioactivity for estrone and estradiol were determined in each sample and percent inhibition of estrone conversion by the respective inhibitor was calculated. For the calculation of % inhibition the following formula was used: [formula] Percent inhibition was calculated as follows: % inhibition=100−% conversion

In assay [2] the target is T2, recombinant human 17β-HSD1 (Homo sapiens, UniProt P14061).
T2 construct: made in house; host or cells: Sf9 insect cells (baculovirus, Bac to Bac Expression System)
T2 sequence (P14061 1-328): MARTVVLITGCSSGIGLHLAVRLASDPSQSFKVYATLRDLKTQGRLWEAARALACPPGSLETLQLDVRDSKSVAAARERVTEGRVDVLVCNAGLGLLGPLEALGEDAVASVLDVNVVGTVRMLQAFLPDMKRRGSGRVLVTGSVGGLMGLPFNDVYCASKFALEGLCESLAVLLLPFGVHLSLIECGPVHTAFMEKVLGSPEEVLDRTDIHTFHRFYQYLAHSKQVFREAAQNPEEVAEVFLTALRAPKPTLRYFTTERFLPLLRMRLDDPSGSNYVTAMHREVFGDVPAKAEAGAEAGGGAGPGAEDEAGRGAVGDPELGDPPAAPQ
Kind of assay: Recombinant 17β-HSD1 assay (HPLC, 3H-estrone conversion). It counts as biochemical. Particulars: 30 nM estrone, 1 mM NADPH, 30 min RT, read-out: Inhibition of rec. 17β-HSD1; for inhibition at 0.1 µM: 100 nM compound; for inhibition at 1 µM: 0.5 h, 1 μm compound. Here is the method: 17β-HSD1 or 17β-HSD2 purification: Recombinant 17β-HSD1 and 17β-HSD2 baculoviruses were generated by the “Bac to Bac Expression System” (Invitrogen). Recombinant 17β-HSD1 or 17β-HSD2 bacmids were transfected to Sf9 insect cells using “Cellfectin Reagent” (Invitrogen). 60 h later cells were harvested; the fractions including 17β-HSD1 or 17β-HSD2 were isolated as described by Puranen et al. (1994). Aliquots were stored frozen until determination of enzymatic activity.
Recombinant 17β-HSD1 assay: Recombinant protein homogenate (0.1 μg/ml) was incubated in 20 mM KH2PO4 pH 7.4 reaction buffer, including protease inhibitors (Complete Protease Inhibitor Cocktail tablet, Roche Diagnostics, 1697498), with 30 nM estrone (Sigma, E9750) as substrate, 800 000 cpm/ml ^3H-estrone (PerkinElmer, NET319001MC) as a tracer substrate, and 1 mM NADPH (Sigma, N1630) as a co-factor for 30 min at RT, in the presence of potential inhibitors at concentrations of 1 μM or 0.1 μM. Inhibitor stock solutions were prepared in DMSO. The enzyme reaction was stopped by addition of trichloroacetic acid (1% final concentration). Samples were centrifuged in a microtiter plate at 4000 rpm for 10 min. Supernatants were applied to reverse phase HPLC on a Waters Symmetry C18 column, equipped with a Waters Sentry Guard column. Isocratic HPLC runs were performed at RT at a flow rate of 1 ml/min of acetonitrile:water 48:52 as running solvent. Radioactivity was monitored in the eluate by a Packard Flow Scintillation Analyzer. Total radioactivity for estrone and estradiol were determined in each sample and percent inhibition of estradiol conversion by the respective inhibitor was calculated
For the calculation of % inhibition the following formula was used:
[formula] Percent inhibition was calculated as follows: % inhibition=100−% conversion

As to `C[C@]12CC[C@@H]3c4ccc(B(O)O)cc4CC[C@H]3[C@@H]1[C@H](CCC(=O)N1CCOCC1)CC2=O` [Compound 33, [15beta-(3-morpholin-4-yl-3-oxopropyl)-17-oxoestra-1(10),2,4-trien-3-yl]boronic acid], in assay [1], the inhibition at 0.1 µM is -2.3% and the inhibition at 1 µM was -1.1%. For the same molecule, in assay [2], the inhibition at 0.1 µM was 20% and the inhibition at 1 µM worked out at 59%.
As to `C[C@]12CC[C@@H]3c4ccc(B(O)O)cc4CC[C@H]3[C@@H]1[C@H](CCC(=O)NCc1ccc3c(c1)OCO3)CC2=O` [Compound 34, [15beta-{3-[(1,3-benzodioxol-5-ylmethyl)amino]-3-oxopropyl}-17-oxoestra-1(10),2,4-trien-3-yl]boronic acid], in assay [1], the inhibition at 0.1 µM came out at 3.2% and the inhibition at 1 µM worked out at 0.4%. For the same molecule, in assay [2], the inhibition at 0.1 µM worked out at 47% and the inhibition at 1 µM was determined as 65%.
Consider `C[C@]12CC[C@@H]3c4ccc(B(O)O)cc4CC[C@H]3[C@@H]1[C@H](CCC(=O)N1CCCCC1)CC2=O` [Compound 35, [17-oxo-15beta-(3-oxo-3-piperidin-1-ylpropyl)estra-1(10),2,4-trien-3-yl]boronic acid], for which, in assay [1], the inhibition at 0.1 µM was 4% and the inhibition at 1 µM was 1.5%. In assay [2], the inhibition at 0.1 µM worked out at 57% and the inhibition at 1 µM came to 56%.
In the same order, the values of `CCN(CC)C(=O)CC[C@@H]1CC(=O)[C@@]2(C)CC[C@@H]3c4ccc(B(O)O)cc4CC[C@H]3[C@H]12` [Compound 39, [15beta-[3-(diethylamino)-3-oxopropyl]-17-oxoestra-1(10),2,4-trien-3-yl]boronic acid] are 1.8%, -0.6%, 74% and 88%.
For `C[C@]12CC[C@@H]3c4ccc(B(O)O)cc4CC[C@H]3[C@@H]1[C@H](CCC(=O)Nc1ccc3c(c1)OCO3)CC2=O` [Compound 45, [15beta-[3-(1,3-benzodioxol-5-ylamino)-3-oxopropyl]-17-oxoestra-1(10),2,4-trien-3-yl]boronic acid], the inhibition at 0.1 µM in assay [1] is -1%; in assay [2], 49%. The inhibition at 1 µM in assay [1] is -1.1%; in assay [2] it was 66%.
For `C[C@]12CC[C@@H]3c4ccc(B(O)O)cc4CC[C@H]3[C@@H]1[C@@H](CCCC(=O)N1CCOCC1)CC2(F)F` [Compound 47, [17,17-difluoro-15alpha-(4-morpholin-4-yl-4-oxobutyl)estra-1(10),2,4-trien-3-yl]boronic acid], in assay [1], the inhibition at 0.1 µM was determined as 3.8% and the inhibition at 1 µM came to 12.9%. In assay [2], the inhibition at 0.1 µM is 10% and the inhibition at 1 µM is 61%.
In the same order, the values of `C[C@]12CC[C@@H]3c4ccc(B(O)O)cc4CC[C@H]3[C@@H]1[C@@H](CCCC(=O)NCc1ccc3c(c1)OCO3)CC2(F)F` [Compound 50, [15alpha-{4-[(1,3-benzodioxol-5-ylmethyl)amino]-4-oxobutyl}-17,17-difluoroestra-1(10),2,4-trien-3-yl]boronic acid] are 8%, 32.8%, 40% and 57%.
On the same counts, the results for `COc1ccc(CCN(C)C(=O)CCC[C@H]2CC(F)(F)[C@@]3(C)CC[C@@H]4c5ccc(B(O)O)cc5CC[C@H]4[C@H]23)cc1OC` [Compound 51, [15alpha-(4-{[2-(3,4-dimethoxyphenyl)ethyl](methyl)amino}-4-oxobutyl)-17,17-difluoroestra-1(10),2,4-trien-3-yl]boronic acid] are 2.8%, 7.8%, 37% and 62%.
In the same order, the values of `C[C@]12CC[C@@H]3c4ccc(B(O)O)cc4CC[C@H]3[C@@H]1[C@@H](CCCC(=O)NCc1ccccc1)CC2(F)F` [Compound 54, [15alpha-[4-(benzylamino)-4-oxobutyl]-17,17-difluoroestra-1(10),2,4-trien-3-yl]boronic acid] are 7.6%, 25.2%, 41% and 58%.
As for `Cc1cnc(NC(=O)CC[C@@H]2CC(F)(F)[C@@]3(C)CC[C@@H]4c5ccc(B(O)O)cc5CC[C@H]4[C@H]23)s1` [Compound 58, [17,17-difluoro-15β-{3-[(5-methyl-1,3-thiazol-2-yl)amino]-3-oxopropyl}estra-1(10),2,4-trien-3-yl]boronic acid], the values for the inhibition at 0.1 µM in assay [1] and in assay [2] were 6.8% and 23%, respectively. For the same molecule, the inhibition at 1 µM in assay [1] was found to be 11.6%; in assay [2], 55%.
In the same order, the values of `C[C@]12CC[C@@H]3c4ccc(B(O)O)cc4CC[C@H]3[C@@H]1[C@H](CCC(=O)NC1CCCCC1)CC2(F)F` [Compound 59, [15beta-[3-(cyclohexylamino)-3-oxopropyl]-17,17-difluoroestra-1(10),2,4-trien-3-yl]boronic acid] are 0.6%, 69%, 15.2% and 84%.
In the case of `C[C@]12CC[C@@H]3c4ccc(B(O)O)cc4CC[C@H]3[C@@H]1[C@H](CCC(=O)NCc1cccnc1)CC2(F)F` [Compound 62, [17,17-Difluoro-15beta-{3-oxo-3-[(pyridin-3-ylmethyl)amino]propyl}estra-1(10),2,4-trien-3-yl]boronic acid], in assay [1], the inhibition at 0.1 µM was determined as 6.2% and the inhibition at 1 µM came out at 8.3%. In addition, in assay [2], the inhibition at 0.1 µM worked out at 36% and the inhibition at 1 µM was 56%.
On the same counts, the results for `C[C@]12CC[C@@H]3c4ccc(B(O)O)cc4CC[C@H]3[C@@H]1[C@H](CCC(=O)NCc1ccc(F)cc1F)CC2(F)F` [Compound 65, [15beta-{3-[(2,4-difluorobenzyl)amino]-3-oxopropyl}-17,17-difluoroestra-1(10),2,4-trien-3-yl]boronic acid] are 5.8%, 9.8%, 32% and 63%.
In the case of `C[C@]12CC[C@@H]3c4ccc(B(O)O)cc4CC[C@H]3[C@@H]1[C@H](CCC(=O)Nc1ccc3c(c1)OCO3)CC2(F)F` [Compound 74, [15beta-[3-(1,3-benzodioxol-5-ylamino)-3-oxopropyl]-17,17-difluoroestra-1(10),2,4-trien-3-yl]boronic acid], in assay [1], the inhibition at 0.1 µM stood at 4.9% and the inhibition at 1 µM is 5.5%. In assay [2], the inhibition at 0.1 µM amounted to 55.6% and the inhibition at 1 µM came out at 71.4%.
